Measured values as given in patent EP4385980A1, “INDAZOLES AS INHIBITORS OF NAV1.8” (Grünenthal GmbH, priority 2022, dated 2024).

Biological target: T1, human NaV1.8 (Homo sapiens, UniProt Q9Y5Y9)
T1 construct: expressed in transfected cells; host or cells: HEK
Experiment: Electrophysiology: voltage-clamp recordings (whole-cell automated patch clamp, Qube384)
Type: cell-based
Conditions: HEK-NaV1.8 with b3 recombinant cell line, ambient room temperature, read-out: Potency category (human NaV1.8 IC50)
Experimental: The following NaV1.8 recombinant cell line was used for recordings: HEK-NaV1.8 (NM_006514.1) with b3 (NM_018400.3).
Sodium currents were measured using the patch clamp technique in the whole-cell configuration using the Qube384 (Sophion A/S, Copenhagen, Denmark) automated voltage clamp platform. "Multi hole" plates were used for the cell line expressing NaV1.8 while "single hole" plates were used for the recombinant cell lines expressing the other subtypes. Appropriate filters (for minimum seal resistance and minimum current size) and series resistance compensation (for high quality sodium channel recordings) were applied. Data was collected at ambient room temperature.
The recording […] solution contained (in mM): NaCl 145 mM, KCl 4 mM, CaCl2 2 mM, MgCl2 1 mM, HEPES 10 mM, Glucose 10 mM, pH 7.4 (NaOH). The […] recording solution contained (in mM): CsF 120 mM, CsCl 20 mM, NaCl 10 mM, EGTA 10 mM, HEPES 10 mM, pH 7.2 (CsOH). Currents were recorded at 25 kHz sampling frequency and filtered at 5 kHz. Series resistance compensation was applied at 65%.
Vehicle (VEH) is the control condition where cells are exposed to 0.3 % DMSO without compound. All runs include VEH controls being exposed to the same voltage protocols to assess non-compound related phenomena such as run down and then used to isolate compound dependent effects on currents.
To check for state-dependence inhibition, the following voltage-sequence was applied every 20 seconds: From a resting membrane potential of-120 mV, the first test pulse (P1; 20 ms to -10 mV) was applied to check for channels in the Resting State followed by a brief recovery (20 ms to -120 mV), then holding the membrane voltage to V1/2 (4 seconds at voltage to obtain half the channel at Rest and half Inactivated) with a subsequent second test pulse (P2; 20 ms to -10 mV) to check for channels in the Inactivated State, followed by another brief recovery (20 ms to -120 mV) and a final third test pulse (P3; 20 ms to -10 mV) to check for recovered channels.
To check for frequency-dependent inhibition, a 10 Hz protocol and a 20 Hz protocol were applied; namely,
From a resting membrane potential of -120 mV, 40-pulses (10 ms to -10 mV) was applied at 10 Hz (at 100 ms between pulses) and then at 20 Hz (at 50 ms between pulses).
Each parameter was recorded (P1, P2, P3, P40 from 10Hz and P40 from 20Hz) during a control period (lasting ~ 5 minutes) when establishing the baseline and during compound period (lasting ~ 12 minutes) when test compound (or vehicle) was applied. For each parameter, the value at the end of the compound period was normalized to the vehicle baseline; as follows Normalized Inhibition (NormCPD) = (CPD Valueend CPD period)/(VEH Valueend Control Period) [formula]
To adjust for any variance in the Na^+ current signal during the compound period (owing to cumulative inactivation independent of compound or shifts in biophysics over time), a dedicated segment of the recording wells in each 384 plate were dedicated to having only vehicle exposure. These vehicle-only recordings were used to correct for any apparent "run-up" or "run-down" in the experiment. Normalized Inhibition (NormVEH) = (VEH Valueend CPD period)/(VEH Valueend Control Period) [formula]
The adjusted inhibition was calculated as follows: % Inhibitioncorrected = 100 × (NormCPD −NormVEH)/(100−NormVEH) [formula]
Percent inhibition was determined and IC50 values were calculated using a 4 parameter logistic model within XLFit Software (IDBS, Boston MA): % Inhibitioncorrected = A + ((B−A))/((1 + (((x)/(C)))^D) [formula] where A and B are the maximal and minimum inhibition respectively, C is the IC50 concentration and D is the (Hill) slope.

T1 sequence (Q9Y5Y9 whole entry): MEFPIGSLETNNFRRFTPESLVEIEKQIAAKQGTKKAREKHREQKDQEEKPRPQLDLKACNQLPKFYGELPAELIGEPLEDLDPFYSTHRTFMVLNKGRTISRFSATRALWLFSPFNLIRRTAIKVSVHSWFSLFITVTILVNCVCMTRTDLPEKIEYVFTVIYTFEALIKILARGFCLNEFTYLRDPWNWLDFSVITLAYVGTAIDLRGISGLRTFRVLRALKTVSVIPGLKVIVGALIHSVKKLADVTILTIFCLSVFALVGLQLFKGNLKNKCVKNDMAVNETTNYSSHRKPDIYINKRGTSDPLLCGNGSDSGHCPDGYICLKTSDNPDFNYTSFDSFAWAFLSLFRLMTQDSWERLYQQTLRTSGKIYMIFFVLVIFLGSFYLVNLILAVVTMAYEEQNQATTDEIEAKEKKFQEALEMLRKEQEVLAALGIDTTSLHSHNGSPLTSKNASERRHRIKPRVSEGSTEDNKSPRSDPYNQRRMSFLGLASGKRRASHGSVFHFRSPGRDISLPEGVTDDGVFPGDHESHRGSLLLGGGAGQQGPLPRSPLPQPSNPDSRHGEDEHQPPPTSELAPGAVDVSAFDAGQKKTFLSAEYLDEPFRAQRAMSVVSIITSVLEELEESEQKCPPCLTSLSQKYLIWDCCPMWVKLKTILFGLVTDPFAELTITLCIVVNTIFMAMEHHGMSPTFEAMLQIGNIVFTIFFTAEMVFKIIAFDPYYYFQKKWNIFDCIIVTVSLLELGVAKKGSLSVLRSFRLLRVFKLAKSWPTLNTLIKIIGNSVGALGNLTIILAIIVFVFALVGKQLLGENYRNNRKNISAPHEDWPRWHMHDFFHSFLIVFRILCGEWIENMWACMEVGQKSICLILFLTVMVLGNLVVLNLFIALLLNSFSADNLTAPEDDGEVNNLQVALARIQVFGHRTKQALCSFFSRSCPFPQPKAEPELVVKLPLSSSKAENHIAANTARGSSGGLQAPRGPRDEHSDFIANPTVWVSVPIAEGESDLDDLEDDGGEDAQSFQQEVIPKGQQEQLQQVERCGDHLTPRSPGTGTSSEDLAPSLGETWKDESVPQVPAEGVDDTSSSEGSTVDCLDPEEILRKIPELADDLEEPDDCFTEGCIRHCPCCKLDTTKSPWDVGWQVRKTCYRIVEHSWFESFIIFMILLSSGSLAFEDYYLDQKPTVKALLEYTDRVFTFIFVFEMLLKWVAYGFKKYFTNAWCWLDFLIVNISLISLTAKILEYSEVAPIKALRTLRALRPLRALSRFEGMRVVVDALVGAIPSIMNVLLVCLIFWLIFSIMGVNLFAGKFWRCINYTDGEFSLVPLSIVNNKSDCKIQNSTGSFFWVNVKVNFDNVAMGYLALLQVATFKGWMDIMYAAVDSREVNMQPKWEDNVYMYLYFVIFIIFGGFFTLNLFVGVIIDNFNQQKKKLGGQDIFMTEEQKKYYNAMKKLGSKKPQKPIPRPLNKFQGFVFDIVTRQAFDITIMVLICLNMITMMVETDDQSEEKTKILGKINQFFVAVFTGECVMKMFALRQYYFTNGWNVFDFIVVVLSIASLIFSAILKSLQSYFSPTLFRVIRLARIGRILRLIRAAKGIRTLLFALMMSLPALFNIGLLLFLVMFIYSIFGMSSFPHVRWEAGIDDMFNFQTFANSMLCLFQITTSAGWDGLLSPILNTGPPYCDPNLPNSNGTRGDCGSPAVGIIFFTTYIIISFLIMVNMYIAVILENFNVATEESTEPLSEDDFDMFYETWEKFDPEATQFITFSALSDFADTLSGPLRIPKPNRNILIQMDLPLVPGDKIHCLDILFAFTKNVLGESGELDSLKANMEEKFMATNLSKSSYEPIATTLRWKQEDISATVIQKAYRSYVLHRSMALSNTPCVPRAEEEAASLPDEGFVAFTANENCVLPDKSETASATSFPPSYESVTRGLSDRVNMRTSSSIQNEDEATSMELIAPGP
T1 sequence (Q9NY72 23-215 partner): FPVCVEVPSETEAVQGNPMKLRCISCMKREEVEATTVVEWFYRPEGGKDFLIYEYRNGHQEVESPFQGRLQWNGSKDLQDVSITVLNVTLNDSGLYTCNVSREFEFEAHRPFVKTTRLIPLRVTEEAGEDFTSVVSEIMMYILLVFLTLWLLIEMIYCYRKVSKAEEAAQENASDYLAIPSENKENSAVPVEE

| IC50 [nM] | SMILES |
| --- | --- |
| ≤ 100 | NC(=O)c1cccc(NC(=O)c2c3ccccc3nn2CC2CCCCC2)c1 [SC-17, N-(3-carbamoylphenyl)-2-(cyclohexylmethyl)indazole-3-carboxamide] |
| 100 to 1000 | CS(=O)(=O)c1cccc(NC(=O)c2c3ccc(F)cc3nn2CC2CC(F)(F)C2)c1 [SC-62, 2-[(3,3-difluorocyclobutyl)methyl]-6-fluoro-N-(3-methylsulfonylphenyl)indazole-3-carboxamide] |
| 1000 to 10000 | CS(=O)(=O)c1cccc(NC(=O)c2c3ccc(F)cc3nn2CC2CCC3(CC2)CC3)c1 [SC-70, 6-fluoro-N-(3-methylsulfonylphenyl)-2-(spiro[2.5]octan-6-ylmethyl)indazole-3-carboxamide] |
| 100 to 1000 | C[C@@H](C1CCCCC1)n1nc2ccccc2c1C(=O)Nc1cccc(S(C)(=O)=O)c1 (single isomer, unassigned) [SC-74a] |
| 1000 to 10000 | NS(=O)(=O)c1cccc(NC(=O)c2c3ccccc3nn2CC2CCCO2)c1 (racemic) [SC-16, N-(3-sulfamoylphenyl)-2-((tetrahydrofuran-2-yl)methyl)-2H-indazole-3-carboxamide] |
| 100 to 1000 | CS(=O)(=O)c1cccc(NC(=O)c2c3ccccc3nn2CC2CCCCO2)c1 (stereo not shown) [SC-58, N-(3-methylsulfonylphenyl)-2-(oxan-2-ylmethyl)indazole-3-carboxamide] |
| 1000 to 10000 | O=C(Nc1cc[nH]c(=O)c1)c1c2ccccc2nn1CC1CCC1 [SC-12, 2-(cyclobutylmethyl)-N-(2-oxo-1,2-dihydropyridin-4-yl)-2H-indazole-3-carboxamide] |
| 100 to 1000 | CS(=O)(=O)c1cccc(NC(=O)c2c3ccccc3nn2CC2CCCC2)c1 [SC-67, 2-(cyclopentylmethyl)-7V-(3-methylsulfonylphenyl)indazole-3-carboxamide] |
| ≤ 100 | NS(=O)(=O)c1cccc(NC(=O)c2c3cccc(C4CC4)c3nn2CC2CCOCC2)c1 [SC-85, 7-cyclopropyl-N-(3-sulfamoylphenyl)-2-((tetrahydro-2H-pyran-4-yl)methyl)-2H-indazole-3-carboxamide] |
| 100 to 1000 | Cc1ccc2nn(CC3CCCCC3)c(C(=O)Nc3cccc(S(C)(=O)=O)c3)c2c1 [SC-46, 2-(cyclohexylmethyl)-5-methyl-N-(3-methylsulfonylphenyl)indazole-3-carboxamide] |
| ≤ 100 | CS(=O)(=O)c1cccc(NC(=O)c2c3c(F)cccc3nn2CC2CCCCC2)c1 [SC-47, 2-(cyclohexylmethyl)-4-fluoro-N-(3-methylsulfonylphenyl)indazole-3-carboxamide] |
| 100 to 1000 | O=C(Nc1ccnc(O)c1)c1c2ccccc2nn1CC1CCCC1 [SC-73, 2-(cyclopentylmethyl)-N-(2-hydroxypyridin-4-yl)indazole-3-carboxamide] |
| ≤ 100 | CS(=O)(=O)c1cc(NC(=O)c2c3ccccc3nn2CC2CCCCC2)ccc1F [SC-77, 2-(cyclohexylmethyl)-N-(4-fluoro-3-methylsulfonylphenyl)indazole-3-carboxamide] |
| ≤ 100 | Cc1cccc2c(C(=O)Nc3cccc(S(N)(=O)=O)c3)n(CC3CCC(F)(F)C3)nc12 (stereo not shown) [SC-80, 2-((3,3-difluorocyclopentyl)methyl)-7-methyl-N-(3-sulfamoylphenyl)-2H-indazole-3-carboxamide] |
| 1000 to 10000 | C[C@H](C1CCCCC1)n1nc2ccccc2c1C(=O)Nc1cccc(S(C)(=O)=O)c1 (single isomer, unassigned) [SC-74b] |

Second part, the compound before the results:

| SMILES | IC50 [nM] |
| --- | --- |
| Cc1ccc2nn(CC3CCCCC3)c(C(=O)Nc3cc[nH]c(=O)c3)c2c1 [SC-48, 2-(cyclohexylmethyl)-5-methyl-N-(2-oxo-1,2-dihydropyridin-4-yl)-2H-indazole-3-carboxamide] | 1000 to 10000 |
| O=C(Nc1ccnc(O)c1)c1c2ccc(F)cc2nn1CC1CCCCO1 (stereo not shown) [SC-71, 6-fluoro-N-(2-hydroxypyridin-4-yl)-2-[[oxan-2-yl]methyl]indazole-3-carboxamide] | 1000 to 10000 |
| NC(=O)c1cccc(NC(=O)c2c3ccc(F)cc3nn2CC2CCC(F)(F)CC2)c1 [SC-76, N-(3-Carbamoylphenyl)-2-[(4,4-difluorocyclohexyl)methyl]-6-fluoro-2H-indazole-3-carboxamide] | 100 to 1000 |
| Cc1ccc(Cl)c2c(C(=O)Nc3ccnc(C(N)=O)c3)n(CC3CCC(F)(F)C3)nc12 (single isomer, unassigned) [SC-82a, N-(2-carbamoylpyridin-4-yl)-4-chloro-2-((3,3-difluorocyclopentyl)methyl)-7-methyl-2H-indazole-3-carboxamide] | ≤ 100 |
| O=C(Nc1ccnc(O)c1)c1c2ccccc2nn1CC1CCCCO1 (stereo not shown) [SC-53, N-(2-hydroxypyridin-4-yl)-2-(oxan-2-ylmethyl)indazole-3-carboxamide] | 1000 to 10000 |
| O=C(Nc1ccnc(O)c1)c1c2cc(F)ccc2nn1CC1CCCCC1 [SC-32, 2-(cyclohexylmethyl)-5-fluoro-N-(2-hydroxypyridin-4-yl)indazole-3-carboxamide] | 100 to 1000 |
| O=C(Nc1ccnc(O)c1)c1c2cccc(C(F)(F)F)c2nn1CC1CCCCC1 [SC-42, 2-(cyclohexylmethyl)-N-(2-hydroxypyridin-4-yl)-7-(trifluoromethyl)indazole-3-carboxamide] | ≤ 100 |
| O=C(Nc1ccnc(O)c1)c1c2ccc(F)cc2nn1CC1CCCCC1 [SC-05, 2-(cyclohexylmethyl)-6-fluoro-N-(2-hydroxypyridin-4-yl)indazole-3-carboxamide] | ≤ 100 |
| Cc1ccc(Cl)c2c(C(=O)Nc3cccc(S(N)(=O)=O)c3)n(CC3CCCCO3)nc12 (single isomer, unassigned) [SC-84a, 4-chloro-7-methyl-N-(3-sulfamoylphenyl)-2-((tetrahydro-2H-pyran-2-yl)methyl)-2H-indazole-3-carboxamide] | ≤ 100 |
| CC(C)(O)c1cccc(NC(=O)c2c3ccccc3nn2CC2CCCCC2)c1 [SC-26, 2-(cyclohexylmethyl)-N-(3-(2-hydroxypropan-2-yl)phenyl)-2H-indazole-3-carboxamide] | 1000 to 10000 |
